Assay results: patent publication US20250312352A1, “GLP-1R MODULATING COMPOUNDS” (Gilead Sciences, Inc., priority 2021, published 2025)
pEC50: −log10 of the molar value.

These compounds were tested against T1, GLP-1R (Homo sapiens, UniProt P43220) (assay: GLP-1R activation cAMP assay (Assay 1 or Assay 2)). Settings: cAMP increase in CHO cells stably expressing GLP-1R; compounds run on one of the two cAMP assays.
T1 construct: host or cells: CHO cells
T1 sequence (P43220 24-463): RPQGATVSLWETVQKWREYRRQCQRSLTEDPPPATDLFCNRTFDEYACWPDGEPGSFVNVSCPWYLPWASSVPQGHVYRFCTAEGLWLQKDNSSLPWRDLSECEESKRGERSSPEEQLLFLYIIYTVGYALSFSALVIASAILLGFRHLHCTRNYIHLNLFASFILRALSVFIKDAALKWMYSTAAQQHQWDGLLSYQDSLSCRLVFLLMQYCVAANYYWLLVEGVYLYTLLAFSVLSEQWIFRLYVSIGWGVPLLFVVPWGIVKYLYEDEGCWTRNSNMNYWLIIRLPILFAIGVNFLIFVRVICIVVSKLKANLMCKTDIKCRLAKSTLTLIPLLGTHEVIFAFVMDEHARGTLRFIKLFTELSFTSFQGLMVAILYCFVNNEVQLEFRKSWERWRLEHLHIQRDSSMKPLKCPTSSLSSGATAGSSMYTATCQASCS
Format: cell-based
In short: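 EC50 values come from a sigmoidal fit of HTRF-detected cAMP rise versus log agonist concentration. GLP-1R-expressing CHO cells, equilibrated 1 h at 37 °C in HBSS with HEPES and BSA, received a 10-point compound dose series for 30 min before detection.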
`COCCn1c(Cc2cc(F)c(-c3cccc(OCc4cnn(-c5ccccc5)c4)n3)cc2F)nc2ccc(C(=O)O)cc21` [Example 121, 2-(2,5-difluoro-4-(6-((1-phenyl-1H-pyrazol-4-yl)methoxy)pyridin-2-yl)benzyl)-1-(2-methoxyethyl)-1H-benzo[d]imidazole-6-carboxylic acid] was tested, and the pEC50 was 6.14.
`COCCn1c(Cc2cc(F)c(-c3cccc(OCc4cn(-c5ccccc5)cn4)n3)cc2F)nc2ccc(C(=O)O)cc21` [Example 122, 2-(2,5-difluoro-4-(6-((1-phenyl-1H-imidazol-4-yl)methoxy)pyridin-2-yl)benzyl)-1-(2-methoxyethyl)-1H-benzo[d]imidazole-6-carboxylic acid] showed a pEC50 of 6.16.
In the case of `O=C(O)c1ccc2nc(Cc3cc(F)c(-c4cccc(OCc5ccc(C(F)(F)F)s5)n4)cc3F)n(C[C@@H]3CCO3)c2c1` [Example 123, (S)-2-(2,5-difluoro-4-(6-((5-(trifluoromethyl)thiophen-2-yl)methoxy)pyridin-2-yl)benzyl)-1-(oxetan-2-ylmethyl)-1H-benzo[d]imidazole-6-carboxylic acid], the pEC50 was 8.58.
`Cn1ccc(COc2cccc(-c3cc(F)c(Cc4nc5ccc(C(=O)O)cc5n4C[C@@H]4CCO4)cc3F)n2)n1` [Example 124, (S)-2-(2,5-difluoro-4-(6-((1-methyl-1H-pyrazol-3-yl)methoxy)pyridin-2-yl)benzyl)-1-(oxetan-2-ylmethyl)-1H-benzo[d]imidazole-6-carboxylic acid] was tested, and the pEC50 was 9.09.
Compound `O=C(O)c1ccc2nc(Cc3cc(F)c(-c4cccc(OCc5ccn(-c6ccncc6)n5)n4)cc3F)n(C[C@@H]3CCO3)c2c1` [Example 125, (S)-2-(2,5-difluoro-4-(6-((1-(pyridin-4-yl)-1H-pyrazol-3-yl)methoxy)pyridin-2-yl)benzyl)-1-(oxetan-2-ylmethyl)-1H-benzo[d]imidazole-6-carboxylic acid] has a pEC50 of 8.44.
In the case of `N#Cc1ccc(COc2cccc(-c3cc(F)c(Cc4nc5ccc(C(=O)O)cc5n4C[C@@H]4CCO4)cc3F)n2)s1` [Example 126, (S)-2-(4-(6-((5-cyanothiophen-2-yl)methoxy)pyridin-2-yl)-2,5-difluorobenzyl)-1-(oxetan-2-ylmethyl)-1H-benzo[d]imidazole-6-carboxylic acid], the pEC50 was 9.51.
In the case of `NC(=O)c1ccc(COc2cccc(-c3cc(F)c(Cc4nc5ccc(C(=O)O)cc5n4C[C@@H]4CCO4)cc3F)n2)s1` [Example 127, (S)-2-(4-(6-((5-carbamoylthiophen-2-yl)methoxy)pyridin-2-yl)-2,5-difluorobenzyl)-1-(oxetan-2-ylmethyl)-1H-benzo[d]imidazole-6-carboxylic acid], the pEC50 was 8.43.
Work on `N#Cc1cc(COc2cccc(-c3cc(F)c(Cc4nc5ccc(C(=O)O)cc5n4C[C@@H]4CCO4)cc3F)n2)cs1` [Example 128, (S)-2-(4-(6-((5-cyanothiophen-3-yl)methoxy)pyridin-2-yl)-2,5-difluorobenzyl)-1-(oxetan-2-ylmethyl)-1H-benzo[d]imidazole-6-carboxylic acid] yielded a pEC50 of 8.71.
`NC(=O)c1cc(COc2cccc(-c3cc(F)c(Cc4nc5ccc(C(=O)O)cc5n4C[C@@H]4CCO4)cc3F)n2)cs1` [Example 129, (S)-2-(4-(6-((5-carbamoylthiophen-3-yl)methoxy)pyridin-2-yl)-2,5-difluorobenzyl)-1-(oxetan-2-ylmethyl)-1H-benzo[d]imidazole-6-carboxylic acid] gave a pEC50 of 8.50.
For `N#Cc1csc(COc2cccc(-c3cc(F)c(Cc4nc5ccc(C(=O)O)cc5n4C[C@@H]4CCO4)cc3F)n2)c1` [Example 130, (S)-2-(4-(6-((4-cyanothiophen-2-yl)methoxy)pyridin-2-yl)-2,5-difluorobenzyl)-1-(oxetan-2-ylmethyl)-1H-benzo[d]imidazole-6-carboxylic acid], the pEC50 was 9.24.
`NC(=O)c1csc(COc2cccc(-c3cc(F)c(Cc4nc5ccc(C(=O)O)cc5n4C[C@@H]4CCO4)cc3F)n2)c1` [Example 131, (S)-2-(4-(6-((4-carbamoylthiophen-2-yl)methoxy)pyridin-2-yl)-2,5-difluorobenzyl)-1-(oxetan-2-ylmethyl)-1H-benzo[d]imidazole-6-carboxylic acid] showed a pEC50 of 8.47.
`Cn1cc(C#Cc2ccc(COc3cccc(-c4cc(F)c(Cc5nc6ccc(C(=O)O)cc6n5C[C@@H]5CCO5)cc4F)n3)c(F)c2)cn1` [Example 132, (S)-2-(2,5-difluoro-4-(6-((2-fluoro-4-((1-methyl-1H-pyrazol-4-yl)ethynyl)benzyl)oxy)pyridin-2-yl)benzyl)-1-(oxetan-2-ylmethyl)-1H-benzo[d]imidazole-6-carboxylic acid] gave a pEC50 of 9.77.
In the case of `CC1(C#Cc2ccc(COc3cccc(-c4cc(F)c(Cc5nc6ccc(C(=O)O)cc6n5C[C@@H]5CCO5)cc4F)n3)c(F)c2)COC1` [Example 133, (S)-2-(2,5-difluoro-4-(6-((2-fluoro-4-((3-methyloxetan-3-yl)ethynyl)benzyl)oxy)pyridin-2-yl)benzyl)-1-(oxetan-2-ylmethyl)-1H-benzo[d]imidazole-6-carboxylic acid], the pEC50 was 9.52.
`Cn1ccc(C#Cc2ccc(COc3cccc(-c4cc(F)c(Cc5nc6ccc(C(=O)O)cc6n5C[C@@H]5CCO5)cc4F)n3)c(F)c2)n1` [Example 134, (S)-2-(2,5-difluoro-4-(6-((2-fluoro-4-((1-methyl-1H-pyrazol-3-yl)ethynyl)benzyl)oxy)pyridin-2-yl)benzyl)-1-(oxetan-2-ylmethyl)-1H-benzo[d]imidazole-6-carboxylic acid] gave a pEC50 of 9.22.
`Cn1nccc1C#Cc1ccc(COc2cccc(-c3cc(F)c(Cc4nc5ccc(C(=O)O)cc5n4C[C@@H]4CCO4)cc3F)n2)c(F)c1` [Example 135, (S)-2-(2,5-difluoro-4-(6-((2-fluoro-4-((1-methyl-1H-pyrazol-5-yl)ethynyl)benzyl)oxy)pyridin-2-yl)benzyl)-1-(oxetan-2-ylmethyl)-1H-benzo[d]imidazole-6-carboxylic acid] showed a pEC50 of 9.47.
`Cc1ncc(C#Cc2ccc(COc3cccc(-c4cc(F)c(Cc5nc6ccc(C(=O)O)cc6n5C[C@@H]5CCO5)cc4F)n3)c(F)c2)o1` [Example 136, (S)-2-(2,5-difluoro-4-(6-((2-fluoro-4-((2-methyloxazol-5-yl)ethynyl)benzyl)oxy)pyridin-2-yl)benzyl)-1-(oxetan-2-ylmethyl)-1H-benzo[d]imidazole-6-carboxylic acid] showed a pEC50 of 9.60.
`O=C(O)c1ccc2nc(Cc3cc(F)c(-c4cccc(OCc5ccc(C#Cc6cncs6)cc5F)n4)cc3F)n(C[C@@H]3CCO3)c2c1` [Example 137, (S)-2-(2,5-difluoro-4-(6-((2-fluoro-4-(thiazol-5-ylethynyl)benzyl)oxy)pyridin-2-yl)benzyl)-1-(oxetan-2-ylmethyl)-1H-benzo[d]imidazole-6-carboxylic acid] gave a pEC50 of 9.62.
In the case of `O=C(O)c1ccc2nc(Cc3cc(F)c(-c4cccc(OCc5ccc(C#Cc6cncnc6)cc5F)n4)cc3F)n(C[C@@H]3CCO3)c2c1` [Example 138, (S)-2-(2,5-difluoro-4-(6-((2-fluoro-4-(pyrimidin-5-ylethynyl)benzyl)oxy)pyridin-2-yl)benzyl)-1-(oxetan-2-ylmethyl)-1H-benzo[d]imidazole-6-carboxylic acid], the pEC50 was 9.55.
`O=C(O)c1ccc2nc(Cc3cc(F)c(-c4cccc(OCc5ccc(C#Cc6cccnc6)cc5F)n4)cc3F)n(C[C@@H]3CCO3)c2c1` [Example 139, (S)-2-(2,5-difluoro-4-(6-((2-fluoro-4-(pyridin-3-ylethynyl)benzyl)oxy)pyridin-2-yl)benzyl)-1-(oxetan-2-ylmethyl)-1H-benzo[d]imidazole-6-carboxylic acid] gave a pEC50 of 9.55.
